A short description of data set [1]: Allergy and skin diseases. The settings on record: in vivo.
Data set [2] concerns A. matricariae. Nature of the data set: Direct contact test of pupae (Table 5). In kind it is in vivo. How it is done: Mature pupae of A. matricariae on paprika leaves in Petri dishes are exposed to a direct spray of the active ingredients.
Two or three days before emergence paprika leaves with parasitized pupae are used. The leaves are laid on filter paper in a plastic Petri dish The filter paper is moistened.
Application of treatment: See Example 23.
The pieces of leaf are transferred after treatment to clean Petri dish bottoms The trays are stored in a clinic chamber at 20° C. temperature, 70% relative humidity and a light-dark cycle of […]. Surviving pupae hatch after 2-3 days. The numbers of hatched and dead pupae are counted.

Data set [3] has as its system useful entomophages and parasites. Nature of the data set: Damage to useful entomophages and parasites. The settings on record: in vivo.
In data set [4] the test system is T. confusum. Nature of the data set: Topical LD50 (Table 3). In kind it is in vivo, 1-2 weeks' old imagos. How it is done: In Table 3 the LD50 values of the Ig and Ii isomers and those of the Ib isomer-pair are disclosed. The data are topically measured.
The active ingredients are dissolved in 2-ethoxyethanol (cellosolve) and 0.3 μl droplets of the solutions are applied onto the dorsal cuticulum of 3-5 days' old female house flies. 10 animals are used and 2 parallels are carried out for each dose. The tests are carried out for 5 dose levels between activity limits of 0% and 100%. After treatment the flies are placed into glass vials. Mortality is determined after 24 hours. Data are transformed to log10 dosage and probit mortality. LD50 and confidence interval values are calculated by linear regression analysis of the log-probit data. The expected values required for the calculation of synergism are obtained by means of harmonic average. The synergistic factor is the quotient of the expected and measured values.
The active ingredients are dissolved in 2-ethoxyethanol and 0.3 μl droplets of the solutions are applied onto the abdominal side of 1-2 weeks' old imagos. Treatment is carried out with 2 parallels and 20 animals for each dose by using 5 dose levels in the range between activity limits of 0% and 100%. Evaluation and determination of LD50 values and synergistic factors are carried out as described in Example 21.

Data set [5] has as its system L. decemlineata. Put plainly: 5 EC formulation sprayed on glass plates (Table 9). In kind it is in vivo, Colorado beetle (L. decemlineata), imagos. The settings on record: 48 hours. The procedure:
From a 5 EC formulation according to Example 17 50-, 100-, 200-, 400-, 800- and 1600-fold diluted emulsions are prepared by diluting with water. 0.5 ml of the emulsions are sprayed onto glass plates whereupon after drying 10 Colorado beetles (L. decemlineata) imagos are placed on each glass plate and the insects are covered. The tests are carried out with 6 doses by carrying out 3 parallels for each dose. The killed insects are counted after 48 hours and the percental mortality rate is calculated.

Entries after “also recorded” stand apart in the source; their conditions may differ.

Regarding `CC1(C)[C@H](C=C(Cl)Cl)[C@H]1C(=O)O[C@H](C#N)c1cccc(Oc2ccccc2)c1` (relative stereo) [Ib], the “allergy and skin diseases” value in data set [1] is “causes no allergy and skin diseases”. Besides, the Mortality % is 0% in data set [2] (1 ppm); 0% in data set [2] (5 ppm); 0% in data set [2] (10 ppm); 61.0% in data set [2] (30 ppm); 100% in data set [5] (dilution 50x); 87% in data set [5] (dilution 100x). In addition, the Mortality % in data set [5] (dilution 200x) was 57%; in data set [5] (dilution 400x) it was 37%; in data set [5] (dilution 800x), 13%; in data set [5] (dilution 1600x) it was 0%. Moreover, in data set [3], the “damage / toxicity to useful entomophages and parasites” value was “does not damage useful entomophages and parasites; also recorded: less toxic on parasites than the isomer-pair Ia”. For the same compound, the LD50 expected in data set [4] (harmonic average of the single isomers) came out at 139.3 ng/insect. Moreover, in data set [4] (quotient of expected and measured LD50), the synerg. factor was 2.68. The LD50 measured in data set [4] (topical, abdominal side) is given as 51.9 ng/insect.

Values taken from US5110976A, “Insecticidal composition comprising more than one active ingredient” (priority 1985, dated 1992).
